Results taken from patent US9796753B2, “N-substituted indenoisoquinolines and syntheses thereof” (Purdue Research Foundation, priority 2005, dated 2017).
Read-outs that look alike come from different tables or passages of the source.

Key:
Assay type in all cases: cell-based
[1] = tested on: CNS SF-539; experiment: COMPARE screening (NCI human cancer cell line screen), cytotoxicity GI50
Procedure: (§1) Selected compounds were tested for antiproliferative activity in the National Cancer Institute's developmental therapeutics assay 60 cell line screen (NCI60). The cells were incubated with the tested compounds at 100, 10, 1, 0.1, and 0.01 μM concentrations for 48 h before treatment with sulforhodamine B dye. Optical densities were recorded, and their ratios relative to that of the control were plotted as percentage growth against the log 10 of the tested compound concentrations.

[2] = tested on: colon HCT-116; experiment: as above
Procedure: as §1

[3] = tested on: lung HOP-62; experiment: as above
Procedure: as §1

[4] = tested on: melanoma UACC-62; experiment: as above
Procedure: as §1

[5] = tested on: ovarian OVCAR-3; experiment: as above
Procedure: as §1

[6] = tested on: prostate DU-145; experiment: as above
Procedure: as §1

[7] = tested on: renal SN12C; experiment: as above
Procedure: as §1

[8] = tested on: breast MDA-MB-435; experiment: as above
[9] = tested on: all human cancer cell lines successfully tested; experiment: NCI screen mean graph midpoint (MGM) for growth inhibition
Procedure: COMPARE screening. The compounds described herein were examined for antiproliferative activity against the human cancer cell lines in the National Cancer Institute screen (COMPARE screening), in which the activity of each compound was evaluated with approximately 55 different cancer cell lines of diverse tumor origins. […] Therefore, the MGM value represents an overall assessment of toxicity of the compound across numerous cell lines.
as §1
The cytotoxicities of the compounds to cultured cancer cells were measured in the National Cancer Institute's 60 cell line assay (a.k.a. NCI-60).

[10] = Table 1, average GI50 of all cell lines tested (approximately 55), test range 10^−8 to 10^−4 molar
[11] = Table 1, concentration corresponding to 50% growth inhibition, read-out: cytotoxicity (GI50) ovarian OVCAR-3
[12] = all human cancer cell lines successfully tested

SMILES | GI50 [1] | GI50 [2] | GI50 [3] | GI50 [4] | GI50 [5] | GI50 [6] | GI50 [7] | GI50 [8] | MGM (mean graph midpoint for growth inhibition) [9, 10] | MGM (mean GI50 across cell lines) [9, 10] | also measured
O=C1c2ccccc2-c2c1c1ccc([N+](=O)[O-])cc1c(=O)n2CCCn1ccnc1 [Compound 5f] | 0.016 µM | 0.274 µM | 0.19 µM | 0.012 µM | 0.864 µM | 0.017 µM | 0.015 µM | 2.17 µM | 0.370 ± 0.28 µM |  | 
COc1cc2c3c(n(CCN4CCOCC4)c(=O)c2cc1OC)-c1ccccc1C3=O [Compound 5h] | > 100 µM | 60.3 µM | 89.1 µM | 56.2 µM | > 100 µM | > 100 µM | > 100 µM | > 100 µM |  | 741 µM | 
O=C1c2ccccc2-c2c1c1ccccc1c(=O)n2CCN1CCOCC1 [Compound 5j] | 85.1 µM | 36.3 µM | > 100 µM | 29.5 µM | 81.3 µM | > 100 µM | 93.3 µM | > 100 µM |  | 67.6 µM | 
COc1cc2c3c(n(CCCn4cccn4)c(=O)c2cc1OC)-c1cc2c(cc1C3=O)OCO2 [Compound 5m] | 0.398 µM | 1.99 µM | 0.447 µM | 0.269 µM | 56.2 µM | 0.363 µM | 0.316 µM | 7.08 µM | 2.16 ± 0.24 µM |  | 
COc1cc2c3c(n(CCCn4cncn4)c(=O)c2cc1OC)-c1cc2c(cc1C3=O)OCO2.Cl [Compound 5n, 6-{3-[2-(1,2,4)]-Triazolyl-1-propyl}-5,6-dihydro-2,3-dimethoxy-8,9-methylenedioxy-5,11-dioxo-11H-indeno[1,2-c]isoquinoline Hydrochloride] | 0.288 µM | 1.91 µM | 0.079 µM | < 0.01 µM | 61.7 µM | 0.085 µM | 0.085 µM | > 100 µM |  | 3.55 µM | 
COc1cc2c3c(n(CCCNc4nccs4)c(=O)c2cc1OC)-c1cc2c(cc1C3=O)OCO2.Cl.Cl [Compound 5o, 6-(3-Thiazolylamino-1-propyl)-5,6-dihydro-2,3-dimethoxy-8,9-methylenedioxy-5,1-dioxo-11H-indeno[1,2-c]isoquinoline Dihydrochloride] | < 0.01 µM | < 0.01 µM | < 0.01 µM | 0.014 µM |  | < 0.01 µM | < 0.01 µM | < 0.01 µM | 0.112 ± 0.066 µM |  | GI50 [5, 11]: 0.041 µM
COc1cc2c3c(n(CCCN4CCN(C)CC4)c(=O)c2cc1OC)-c1cc2c(cc1C3=O)OCO2 [Compound 5t] | 17.8 µM | 1.48 µM | 18.2 µM | 15.1 µM | 15.1 µM | 10.7 µM | 11.5 µM | > 100 µM |  | 12.0 µM | 
COc1cc2c3c(n(CCCN4CCC(N)CC4)c(=O)c2cc1OC)-c1cc2c(cc1C3=O)OCO2.Cl.Cl [Compound 5u, 6-[3-(4-Aminopiperidinyl)-1-propyl]-5,6-dihydro-2,3-dimethoxy-8,9-methylenedioxy-5,11-dioxo-11H-indeno[1,2-c]isoquinoline Dihydrochloride] | 0.1 µM | 0.12 µM | 0.427 µM | 1.29 µM |  | 0.182 µM | 0.257 µM | 1.74 µM | 0.766 ± 0.254 µM |  | GI50 [5, 11]: 0.832 µM
Nn1c2c(c3ccccc3c1=O)C(=O)c1ccccc1-2 [Compound 5z, 6-Amino-5,6-dihydro-5,11-diketo-11H-indeno[1,2-c]isoquinoline] |  |  |  |  |  |  |  |  |  | 39.8 µM | GI50 ([1]; Homo sapiens, CNSSF-539, read-out: cytotoxicity (GI50) CNS SF-539): 28.2 µM; GI50 ([2]; Homo sapiens, HCT-116, read-out: cytotoxicity (GI50) colon HCT-116): > 50.1 µM; GI50 ([3]; Homo sapiens, HOP-62, read-out: cytotoxicity (GI50) lung HOP-62): 24.5 µM; GI50 ([4]; Homo sapiens, UACC-62, read-out: cytotoxicity (GI50) melanoma UACC-62): > 50.1 µM; GI50 ([5]; Homo sapiens, OVCAR-3, read-out: cytotoxicity (GI50) ovarian OVCAR-3): > 50.1 µM; GI50 ([6]; Homo sapiens, DU-145, read-out: cytotoxicity (GI50) prostate DU-145): > 50.1 µM; GI50 ([7]; Homo sapiens, SN12C, read-out: cytotoxicity (GI50) renal SN12C): > 50.1 µM; GI50 ([8]; Homo sapiens, MDA-MB-435, read-out: cytotoxicity (GI50) breast MDA-MB-435): > 50.1 µM
O=C1c2ccccc2-c2c1c1ccccc1c(=O)n2CCNCCn1c2c(c3ccccc3c1=O)C(=O)c1ccccc1-2 [Compound 12a, Bis{(5,6-dihydro-5,11-diketo-11H-indeno[1,2-c]isoquinoline)-6-ethyl}amine] | > 25.1 µM | > 25.1 µM | > 25.1 µM | > 25.1 µM | > 25.1 µM | > 25.1 µM | > 25.1 µM | > 25.1 µM |  |  | MGM (mean GI50 across cell lines) [9, 12]: 18.2 µM
O=C1c2ccccc2-c2c1c1ccccc1c(=O)n2CCCNCCCn1c2c(c3ccccc3c1=O)C(=O)c1ccccc1-2 [Compound 12c, Bis{(5,6-dihydro-5,11-diketo-11H-indeno[1,2-c]isoquinoline)-6-propyl}amine] | 3.63 µM | 0.55 µM | 0.794 µM | 6.61 µM | 2.95 µM | 1 µM | 1.55 µM | 8.91 µM |  |  | MGM (mean graph midpoint for growth inhibition) [9, 12]: 4.28 ± 1.89 µM
